Test results published in patent publication US12697325B2 (TENNOR THERAPEUTICS (SUZHOU) LIMITED, priority 2021, dated 2026).
Read-outs that look alike come from different tables or passages of the source.

How the values were obtained:
[1] = 0.5 g, q8 h via infusion for 2 h; cited from earlier work
[2] = Pharmacokinetics in plasma and bronchoalveolar lavage fluid of female CD-1 mice; assay type: in vivo; settings: female, CD-1, mouse
Protocol: An appropriate amount of the test drug was accurately weighed and mixed with the appropriate volume of vehicle (5% DMSO+0.5% Tween 80 in normal saline) to obtain a clear solution for the test in Table 9. The formulation solution for injection was prepared to sterile filtration through a 0.22 μm filter prior to administration. The mice were dosed with the drug within 30 min after the formulated solution for injection was prepared. A 1.5 mL of the formulation solution for injection was transferred into a polypropylene microcentrifuge tube for dose verification by LC/UV or LC-MS/MS.
All blood samples were transferred to pre-frozen EDTA-K2 tubes and placed on wet ice until centrifugation. […]
Plasma: approximately 100 μL of blood sample was transferred into pre-cooled commercial EDTA-K2 tubes and placed on wet ice until centrifugation. After the blood samples were centrifuged at approximately 4° C. and 3, 200 g for 10 min, plasma was collected and transferred to pre-labeled 96-well plates or polypropylene tubes, flash frozen on dry ice, and stored at ≤−60° C. until the analysis by LC-MS/MS.
Serum: approximately 100 μL of blood sample was transferred into a tube without anticoagulant and placed on wet ice for approximately 30 min and centrifuged at 4° C. and 3,000 g for 10 min, and the serum was collected and transferred into pre-labeled PP tubes placed on wet ice. After the completion of all the collections, serum samples were stored at −60° C. until being sent to the animal experimental team to determine urea concentration.
Bronchoalveolar lavage fluid (BALF): pre-cooled tracheo-alveolar lavage fluid was injected into the trachea or predefined bronchi. After a full expansion of the lung tissue, the lavage fluid was slowly drawn out with a syringe 30 s later. The lung was lavaged three times. During the last lavage, the lung tissue was gently squeezed to restore the fluid. To prevent contamination of other lung tissues, the corresponding bronchi were ligated. Both lungs of the mice were perfused with 0.8 mL.
[…] Approximately 200 μL of the BALF samples were transferred into a polypropylene tube, rapidly frozen on dry ice, maintained at ≤−60° C., and sent to the animal experimental team to determine urea concentration. The remaining BALF samples (approximately 600 μL) were rapidly frozen on dry ice and maintained at ≤−60° C. until being submitted for drug concentration analysis by LC-MS/MS.

[3] = cited from earlier work
[4] = test system: Acinetobacter baumannii strains; assay: Minimum inhibitory concentration (CLSI M07), Example 2, 20 strains; assay type: cell-based

## NC(=O)[C@@H]1CC[C@@H]2CN1C(=O)N2OS(=O)(=O)O [Avibactam, [(2S,5R)-2-carbamoyl-7-oxo-1,6-diazabicyclo [3.2.1]oct-6-yl] bisulfate]
[1]
  Part of the dosing interval with plasma concentration above 4 μg/mL: 50%
  Part of the dosing interval with plasma concentration above 8 μg/mL: 30%
[2]; BALF/plasma, intravenous, 25 mg/kg, 0.50 h, read-out: BALF/plasma ratio Mean
  Kp at 0.5 h: 0.0474
[2]; BALF/plasma, intravenous, 150 mg/kg, 3.00 h, read-out: BALF/plasma ratio Mean
  Kp at 3 h: 0.0319
[2]; BALF/plasma, intravenous, 150 mg/kg, 5.00 h, read-out: BALF/plasma ratio Mean
  Kp at 5 h: 0.153
[2]; BALF/plasma, intravenous, 150 mg/kg, 8.00 h, read-out: BALF/plasma ratio Mean
  Kp at 8 h: 0.211
[2]; ELF, intravenous, 0.50 h, group 01 (25 mg/kg per Table 9), read-out: ELF concentration Mean ± SD
  concentration at 0.5 h: 5400 ± 2390 ng/mL
[2]; ELF, intravenous, 3.00 h, 150 mg/kg, read-out: ELF concentration Mean ± SD
  concentration at 3 h: 4730 ± 2410 ng/mL
[2]; ELF, intravenous, 5.00 h, 150 mg/kg, read-out: ELF concentration Mean ± SD
  concentration at 5 h: 129 ± 75.2 ng/mL
[2]; ELF, intravenous, 8.00 h, 150 mg/kg, read-out: ELF concentration Mean ± SD
  concentration at 8 h: 22.2 ng/mL
[2]; bronchoalveolar lavage fluid (BALF), intravenous, 0.50 h, group 01 (25 mg/kg per Table 9), read-out: BALF concentration Mean ± SD
  concentration at 0.5 h: 849 ± 210 ng/mL
[2]; bronchoalveolar lavage fluid (BALF), intravenous, 3.00 h, 150 mg/kg, read-out: BALF concentration Mean ± SD
  concentration at 3 h: 626 ± 459 ng/mL
[2]; bronchoalveolar lavage fluid (BALF), intravenous, 5.00 h, 150 mg/kg, read-out: BALF concentration Mean ± SD
  concentration at 5 h: 19 ± 11.6 ng/mL
[2]; bronchoalveolar lavage fluid (BALF), intravenous, 8.00 h, 150 mg/kg, read-out: BALF concentration Mean ± SD
  concentration at 8 h: 5.37 ng/mL
[2]; plasma, 0.25 h, group 01 (25 mg/kg per Table 9), intravenous dripping, read-out: Plasma concentration Mean ± SD
  concentration at 0.25 h: 16500 ± 2260 ng/mL
[2]; plasma, 0.50 h, group 01 (25 mg/kg per Table 9), intravenous dripping, read-out: Plasma concentration Mean ± SD
  concentration at 0.5 h: 17900 ± 2040 ng/mL
[2]; plasma, 1.00 h, 150 mg/kg intravenous dripping, read-out: Plasma concentration Mean ± SD
  concentration at 1 h: 18800 ± 3070 ng/mL
[2]; plasma, 3.00 h, 150 mg/kg intravenous dripping, read-out: Plasma concentration Mean ± SD
  concentration at 3 h: 18300 ± 4530 ng/mL
[2]; plasma, 4.00 h, 150 mg/kg intravenous dripping, read-out: Plasma concentration Mean ± SD
  concentration at 4 h: 285 ± 226 ng/mL
[2]; plasma, 5.00 h, 150 mg/kg intravenous dripping, read-out: Plasma concentration Mean ± SD
  concentration at 5 h: 123 ± 34.8 ng/mL
[2]; plasma, 6.00 h, 150 mg/kg intravenous dripping, read-out: Plasma concentration Mean ± SD
  concentration at 6 h: 57.8 ± 3.1 ng/mL
[2]; plasma, 8.00 h, 150 mg/kg intravenous dripping, read-out: Plasma concentration Mean ± SD
  concentration at 8 h: 28.5 ± 9.52 ng/mL
[3]
  Protein binding: ~8%
[4]; strain BAA-1795, sulbactam/avibactam 4:1, concentration of the named component
  MIC of the strain BAA-1795 (component in the combination): 2 µg/mL
[4]; sulbactam sodium:avibactam sodium = 4:1, concentration of the named component
  MIC90 of the single component in the combination: 4 µg/mL
[4]; sulbactam sodium:avibactam sodium = 4:1, concentration of the named component, Examples 1 and 2
  MIC50 of the single component in the combination: 2 µg/mL
